This test deals with T1, Mushroom tyrosinase.
T1 construct: gene PPO3; commercial native mushroom tyrosinase (Sigma), isoenzyme mixture
As to the kind of experiment: absorbance at […] nm, […] min. Type of test: biochemical. As to conditions: L-tyrosine substrate (1 mL of 100 mg/L); sodium phosphate buffer; DMSO stock; alpha or beta anomer not stated.

Converted amounts (≈) assume the structure as drawn.

Drawing on PMC6276509, “Evaluation of Tyrosinase Inhibitory, Antioxidant, Antimicrobial, and Antiaging Activities of Magnolia officinalis Extracts after Aspergillus niger Fermentation” (BioMed Research International, 2018), this text covers IC50 for one compound.

The IC50 is the concentration that inhibits the measured activity by half. Higher therefore signals a need for much substance.

On to `OC[C@H]1O[C@@H](Oc2ccc(O)cc2)[C@H](O)[C@@H](O)[C@@H]1O` [arbutin], for which the 50% inhibitory concentration (IC50) is 56 ± 12 mg/L (≈ 206 µM).
